{
  "source": "paper PMC6332446",
  "about": "“Acylphloroglucinol Derivatives from the South African Helichrysum niveum and Their Biological Activities” (Molecules, 2015)",
  "key": {"[1]": {"test": "ORAC assay, peroxyl radical absorbance capacity (ORACROO)", "settings": "trolox equivalents; AAPH, 37 °C; ± % STDEV", "protocol": "(§1) Automated Oxygen Radicals Absorbance Capacity (ORAC) Assay: ORAC was measured according to the method previously described. The method measures the antioxidant scavenging capacity for (a) peroxyl radicals generated by thermal decomposition of 2,2ʹ-azobis ([…]) dihydrochloride (AAPH; ORACROO assay); (b) hydroxyl radical (ORACOH assay), generated by H2O2-Cu^2+ (H2O2, 0.3%; Cu^2+ [as CuSO4], 18 μM, or (c) Cu^2+ [as CuSO4], 18 μM as a transition metal oxidant at 37 °C. ORAC values were expressed as micromoles of trolox equivalents (TE) per milligram of test sample, except when Cu^2+ (without H2O2) was used as an oxidant in the assay. In the presence of Cu^2+ without H2O2, test samples acted as prooxidants rather than antioxidants in the ORAC assay. The copper-initiated prooxidant activity was calculated using [(AreaBlank − AreaSample)/AreaBlank] × 100 and expressed as prooxidant units; one unit equals the prooxidant activity that reduces the area under the fluorescein decay curve by 1% in the ORAC assay."}, "[2]": {"test": "ORAC assay, hydroxyl radical absorbance capacity (ORACOH)", "settings": "trolox equivalents; H2O2 0.3%, Cu2+ 18 μM, 37 °C; ± % STDEV", "protocol": "as §1"}, "[3]": {"test": "Copper-initiated prooxidant activity in the ORAC assay", "settings": "Cu2+ 18 μM without H2O2, 37 °C; one unit = 1% reduction of area under fluorescein decay curve", "protocol": "as §1"}, "[4]": {"test": "Trolox equivalent absorbance capacity (TEAC) assay", "settings": "trolox equivalents; absorbance 734 nm, 25 °C", "protocol": "Trolox Equivalent Absorbance Capacity (TEAC) Assay: The total antioxidant capacity of the test samples in terms of TEAC were measured using a previously described method. Absorbance was read at 734 nm at 25 °C in a plate reader and the results were expressed as μM trolox equivalents per milligram dry weight (μM TE/g DW) of the test samples."}, "[5]": {"test": "Ferric-ion reducing antioxidant power (FRAP) assay", "settings": "ascorbic acid equivalents; absorbance 593 nm; ± % STDEV", "protocol": "Ferric-Ion Reducing Antioxidant Power (FRAP) Assay: Working FRAP reagent was prepared in accordance to the method described previously. Absorbance was measured at 593 nm. L-ascorbic acid was used as a standard and the results were expressed as μM ascorbic acid equivalents per milligram dry weight (μM AAE/g DW) of the test samples."}, "mushroom tyrosinase": {"target": "mushroom tyrosinase", "test": "Tyrosinase enzyme assay", "assay_type": "biochemical", "settings": "L-Tyrosine substrate; samples screened at 100.00 μg/mL upper limit", "protocol": "Tyrosinase Enzyme Assay: The tyrosinase inhibitory activity was measured using the spectrophotometric method previously described. Samples were dissolved in DMSO to a stock solution of 1 mg/mL, and further dilutions were then done with 50 mM sodium phosphate buffer (pH 6.5) for all working solutions. […] In the wells of a 96-well plate, 70 µL of each sample working solution was combined with 30 μL of tyrosinase (500 Units/mL in sodium phosphate buffer) in triplicate. After incubation at room temperature for 5 min, 110 μL of substrate (2 mM L-Tyrosine) was added to each well. Final concentrations of the crude extract, isolated compounds, and positive control ranged from 1.0–100 μg/mL. Incubation commenced for 30 min at room temperature and the enzyme activity was determined by measuring the absorbance at 490 nm. The percentage of tyrosinase inhibition was calculated as follows: Tyrosinase inhibition (%) = [(A − B) − (C − D)]/(A − B) × 100 (1) where A is the absorbance of the control with the enzyme, B is the absorbance of the control without the enzyme, C is the absorbance of the test sample with the enzyme and D is the absorbance of the test sample without the enzyme."}, "[6]": {"target": "T1, elastase from porcine pancrease (Sus scrofa, UniProt P00772)", "T1 construct": "from tissue; host or cells: porcine pancreas", "T1 sequence (P00772 27-266)": "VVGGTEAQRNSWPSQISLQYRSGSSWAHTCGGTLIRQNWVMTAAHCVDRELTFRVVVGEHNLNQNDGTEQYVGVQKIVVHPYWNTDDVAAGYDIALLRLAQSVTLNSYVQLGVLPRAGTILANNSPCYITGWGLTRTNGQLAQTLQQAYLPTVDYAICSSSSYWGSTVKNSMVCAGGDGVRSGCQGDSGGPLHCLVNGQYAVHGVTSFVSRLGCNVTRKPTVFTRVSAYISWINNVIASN", "test": "biochemical", "settings": "SANA substrate; samples screened at 100.00 μg/mL upper limit; read-out: Inhibitory Activities IC50, Elastase (converted)", "protocol": "Elastase Inhibition Assay: Inhibition of elastase by the test samples was assayed using N-succyl-(Ala)-3-nitroanilide (SANA) as the substrate, monitoring the release of p-nitroanilide by the method described previously. The inhibitory activity determined the intensity of color released during cleavage of SANA by the action of elastase. Briefly, 1 mM SANA was prepared in 0.1 M Tris-HCl buffer pH 8.0 and 200 μL of this solution was added to the 20 μL of sample solution in a 96-Well plate. The mixtures were vortexed and preincubated for 10 min at 25 °C and then 20 μL of elastase from porcine pancrease (0.03 Units/mL) was added. The mixtures were further incubated for 10 min and the absorbance was measured at 410 nm. Methanol was used as control, while oleanolic acid used as a positive control."}, "[7]": {"target": "Acetylcholinesterase (AChE) (Homo sapiens, UniProt P22303)", "sequence (P22303 32-614, species assumed)": "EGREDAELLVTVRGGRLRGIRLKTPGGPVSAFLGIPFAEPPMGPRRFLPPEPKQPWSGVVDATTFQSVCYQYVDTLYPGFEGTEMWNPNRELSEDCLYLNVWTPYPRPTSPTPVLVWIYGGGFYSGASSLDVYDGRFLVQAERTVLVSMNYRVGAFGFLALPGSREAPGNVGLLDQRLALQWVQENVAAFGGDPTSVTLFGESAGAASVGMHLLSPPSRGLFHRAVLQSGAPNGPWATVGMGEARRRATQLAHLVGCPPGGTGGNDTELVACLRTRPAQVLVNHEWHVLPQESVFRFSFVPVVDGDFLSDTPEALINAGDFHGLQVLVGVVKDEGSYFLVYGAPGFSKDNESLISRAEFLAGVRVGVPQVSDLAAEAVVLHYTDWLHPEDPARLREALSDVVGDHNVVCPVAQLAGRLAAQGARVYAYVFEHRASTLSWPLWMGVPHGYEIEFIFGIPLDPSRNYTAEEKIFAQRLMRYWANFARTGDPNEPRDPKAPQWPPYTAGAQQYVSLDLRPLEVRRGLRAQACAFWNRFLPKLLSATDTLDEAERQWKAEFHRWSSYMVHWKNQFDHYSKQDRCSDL", "test": "biochemical", "settings": "500.00 μg/mL upper concentration limit; read-out: Inhibitory Activities IC50, Acetylcholinesterase (converted)", "protocol": "Acetylcholinesterase Inhibition Assay: Acetylcholinesterase (AChE) inhibitory activity was measured using Ellman’s method as previously described with minor modifications. AChE catalysis the hydrolysis of acetythiocholine iodide (ACTI as substrate) to thiocholine, which can then react with Ellman’s reagent (DTNB) to produce 5-thio-2-nitrobenzoate (yellow color). In the presence of samples (inhibitors), the release of 5-thio-2-nitrobenzoate (yellow color) is reduced and it is monitored by measuring the absorbance at 450 nm.\nIn a 96-Well plate, the reaction mixture contains 50 µL of samples pre-incubated with 125 µL of 3 mM 5,5ʹ-Dithiobis-(2-nitrobenzoic acid), and 25 µL AChE (2.0 U/mL), in 50 mM tris-HCl buffer (pH 8.0), with 0.1% bovine serum albumin (BSA) for 15 minutes at 25 °C. Subsequently, 25 µL (15 mM) ACTI was added to the incubation mixture and further incubated for 10 min at 25 °C. […] Absorbance was recorded at 450 nm. The percent AChE inhibitory activity is given by: [A0 − (B − C)]/A0 × 100 (3) where A0 = full enzymatic reaction; B = Activity in the presence of sample; and C = Activity without sample."}, "Rat liver microsomes": {"test_system": "Rat liver microsomes", "settings": "Fe2+-induced, TBARs, samples screened at 50.00 μg/mL, ± STDEV"}},
  "data": [
    {"smiles": "CC1(C)CC[C@]2(C)CC=C3[C@](C)(CCC4[C@@]5(C)CC[C@H](O)[C@](C)(CO)C5CC[C@@]34C)C2C1", "note": "(stereo partly drawn) [Compound 11, 3β-24-dihydroxyterexer-14-ene]", "values": [
      {"measurement": "Peroxyl (ORAC peroxyl radical absorbance capacity)", "setting": "[1]", "result": "1193.10 ± 1.68", "unit": "µM TE/g"},
      {"measurement": "Hydroxyl (ORACOH)", "setting": "[2]", "result": "0.89 ± 7.34 × 10^6 µMTE/g"},
      {"measurement": "Prooxidant (copper-initiated prooxidant activity)", "setting": "[3]", "result": "31.38 ± 7.00", "unit": "prooxidant units"},
      {"measurement": "TEAC", "setting": "[4]", "result": "1323.61 ± 1.76", "unit": "μM TE/g DW"},
      {"measurement": "FRAP", "setting": "[5]", "result": "197.99 ± 3.90", "unit": "µMAAE/g"},
      {"measurement": "Inhibitory Activities IC50, Tyrosinase", "setting": "mushroom tyrosinase", "result": ">100.00", "unit": "µg/mL"},
      {"measurement": "IC50", "setting": "[6]", "result": "> 226", "unit": "µM"},
      {"measurement": "IC50", "setting": "[7]", "result": 707, "unit": "µM"},
      {"measurement": "Anti-Lipid peroxidation IC50", "setting": "Rat liver microsomes", "result": ">50.00", "unit": "µg/mL"}
    ]}
  ]
}
